Assay [1] has as its target T1, 5-hydroxytryptamine receptor 1A (Homo sapiens, UniProt P08908).
T1 sequence (P08908 whole entry): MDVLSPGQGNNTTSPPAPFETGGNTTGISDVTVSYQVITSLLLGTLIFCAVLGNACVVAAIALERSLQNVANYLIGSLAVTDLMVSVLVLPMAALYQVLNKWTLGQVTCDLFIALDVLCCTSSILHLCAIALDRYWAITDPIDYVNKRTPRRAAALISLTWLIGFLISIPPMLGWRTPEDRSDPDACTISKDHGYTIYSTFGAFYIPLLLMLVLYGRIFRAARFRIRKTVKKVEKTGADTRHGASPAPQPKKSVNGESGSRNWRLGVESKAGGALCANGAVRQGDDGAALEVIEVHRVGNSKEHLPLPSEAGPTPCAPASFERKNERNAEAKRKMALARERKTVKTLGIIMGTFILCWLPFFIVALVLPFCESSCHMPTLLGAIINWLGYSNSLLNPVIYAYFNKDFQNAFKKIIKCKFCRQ
Put plainly: Binding affinity for 5-hydroxytryptamine 1A receptor.

In assay [2] the target is 5-hydroxytryptamine receptor 1D (Sus scrofa, UniProt P79400). Put plainly: Binding affinity for 5-hydroxytryptamine 1D receptor.
For assay [3], the target named is T2, 5-hydroxytryptamine receptor 2C (Homo sapiens, UniProt P28335).
T2 sequence (P28335 whole entry): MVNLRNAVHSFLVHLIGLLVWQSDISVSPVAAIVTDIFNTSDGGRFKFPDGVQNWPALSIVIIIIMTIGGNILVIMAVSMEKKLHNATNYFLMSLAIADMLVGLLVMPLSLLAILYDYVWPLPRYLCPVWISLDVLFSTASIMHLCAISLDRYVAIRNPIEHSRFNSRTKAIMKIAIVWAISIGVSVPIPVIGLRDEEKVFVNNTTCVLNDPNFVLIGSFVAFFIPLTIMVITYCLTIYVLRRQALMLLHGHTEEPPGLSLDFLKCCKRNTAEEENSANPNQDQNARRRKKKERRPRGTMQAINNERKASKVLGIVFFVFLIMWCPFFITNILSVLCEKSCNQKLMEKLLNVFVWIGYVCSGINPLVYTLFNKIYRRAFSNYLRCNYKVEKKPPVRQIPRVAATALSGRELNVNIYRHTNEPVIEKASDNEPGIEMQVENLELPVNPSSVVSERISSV
Put plainly: Binding affinity towards 5-hydroxytryptamine 2C receptor.

Assay [4] has as its target T3, Serotonin 3 (5-HT3) receptor (Rattus norvegicus, UniProt P35563+Q9JJ16).
T3 sequence (P35563 whole entry): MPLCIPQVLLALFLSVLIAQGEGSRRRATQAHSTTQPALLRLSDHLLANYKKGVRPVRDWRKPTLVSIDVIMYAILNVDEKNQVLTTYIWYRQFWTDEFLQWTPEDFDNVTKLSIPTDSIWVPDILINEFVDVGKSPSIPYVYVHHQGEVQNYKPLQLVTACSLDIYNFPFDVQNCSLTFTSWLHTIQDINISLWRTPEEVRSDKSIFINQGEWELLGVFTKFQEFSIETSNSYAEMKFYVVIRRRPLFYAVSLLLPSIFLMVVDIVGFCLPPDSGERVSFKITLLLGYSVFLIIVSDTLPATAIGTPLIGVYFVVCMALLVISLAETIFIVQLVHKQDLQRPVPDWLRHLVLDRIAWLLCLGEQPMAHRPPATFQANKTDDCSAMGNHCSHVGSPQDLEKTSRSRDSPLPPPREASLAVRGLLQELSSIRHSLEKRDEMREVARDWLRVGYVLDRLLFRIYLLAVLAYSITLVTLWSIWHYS
T3 sequence (Q9JJ16 whole entry): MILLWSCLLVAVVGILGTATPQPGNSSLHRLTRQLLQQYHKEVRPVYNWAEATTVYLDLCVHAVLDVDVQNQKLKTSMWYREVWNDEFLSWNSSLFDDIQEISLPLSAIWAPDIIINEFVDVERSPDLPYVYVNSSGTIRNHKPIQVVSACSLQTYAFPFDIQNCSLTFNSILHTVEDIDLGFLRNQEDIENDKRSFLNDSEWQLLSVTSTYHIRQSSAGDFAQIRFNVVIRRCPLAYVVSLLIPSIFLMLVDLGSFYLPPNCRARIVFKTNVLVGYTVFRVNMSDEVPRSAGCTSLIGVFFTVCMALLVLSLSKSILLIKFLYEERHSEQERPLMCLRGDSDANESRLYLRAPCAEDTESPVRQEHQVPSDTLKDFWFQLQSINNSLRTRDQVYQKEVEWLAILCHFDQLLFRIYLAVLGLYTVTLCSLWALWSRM
Put plainly: Binding affinity towards 5-hydroxytryptamine 3 receptor. The assay is classed as protein-complex assay.

Assay [5] concerns the target 5-hydroxytryptamine receptor 1B (Rattus norvegicus, UniProt P28564). Put plainly: Binding affinity for 5-hydroxytryptamine 1B receptor.
For assay [6], the target named is 5-hydroxytryptamine receptor 2A (Bos taurus, UniProt Q75Z89). Put plainly: Binding affinity towards 5-hydroxytryptamine 2A receptor.
Chain of 5-hydroxytryptamine receptor 2A (Q75Z89 whole entry): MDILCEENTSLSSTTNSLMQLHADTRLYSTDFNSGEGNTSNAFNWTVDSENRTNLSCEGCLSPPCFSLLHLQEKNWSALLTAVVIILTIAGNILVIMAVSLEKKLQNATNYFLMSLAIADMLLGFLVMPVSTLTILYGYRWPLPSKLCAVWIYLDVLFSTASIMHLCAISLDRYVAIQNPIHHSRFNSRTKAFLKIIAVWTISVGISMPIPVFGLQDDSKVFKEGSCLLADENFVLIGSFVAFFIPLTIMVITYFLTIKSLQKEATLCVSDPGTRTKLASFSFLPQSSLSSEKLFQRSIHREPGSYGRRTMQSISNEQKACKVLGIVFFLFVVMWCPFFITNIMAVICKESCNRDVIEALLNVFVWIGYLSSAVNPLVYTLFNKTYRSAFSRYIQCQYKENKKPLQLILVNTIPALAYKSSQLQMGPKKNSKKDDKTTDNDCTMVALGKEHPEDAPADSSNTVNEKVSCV

Chain of 5-hydroxytryptamine receptor 1B (P28564 whole entry): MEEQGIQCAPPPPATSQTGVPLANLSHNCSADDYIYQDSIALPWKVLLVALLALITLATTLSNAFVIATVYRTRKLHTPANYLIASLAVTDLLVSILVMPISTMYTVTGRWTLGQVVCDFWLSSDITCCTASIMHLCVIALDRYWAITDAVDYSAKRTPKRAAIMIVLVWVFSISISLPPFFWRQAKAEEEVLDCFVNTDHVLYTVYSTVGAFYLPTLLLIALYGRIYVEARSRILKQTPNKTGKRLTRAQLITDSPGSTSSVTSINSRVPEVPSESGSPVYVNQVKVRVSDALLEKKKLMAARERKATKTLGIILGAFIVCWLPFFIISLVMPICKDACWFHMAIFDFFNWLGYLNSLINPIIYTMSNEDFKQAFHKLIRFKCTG
Chain of 5-hydroxytryptamine receptor 1D (P79400 whole entry): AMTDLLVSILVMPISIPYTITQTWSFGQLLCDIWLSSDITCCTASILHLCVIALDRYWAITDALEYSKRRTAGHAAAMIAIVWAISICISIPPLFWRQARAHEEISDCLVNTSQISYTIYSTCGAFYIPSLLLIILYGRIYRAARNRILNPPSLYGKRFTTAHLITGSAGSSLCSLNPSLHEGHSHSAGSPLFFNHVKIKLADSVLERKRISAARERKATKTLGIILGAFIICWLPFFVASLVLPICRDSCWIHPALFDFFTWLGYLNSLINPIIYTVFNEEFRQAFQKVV

For the compound `CN1CCN(c2nc3cc(-c4ccccc4)sc3n3cccc23)CC1`, the 50% inhibitory concentration (IC50) in assay [1] is 4.9 µM; in assay [2], 87.1 µM; in assay [3], 11.7 µM; in assay [4], 19.1 µM; in assay [5], 14.8 µM; in assay [6], 7.41 µM.

With `c1cc2c(N3CCN(CC4CC4)CC3)nc3ccsc3n2c1`, the concentration for half-maximal inhibition (IC50) is 0.0617 µM in assay [1]; 2.57 µM in assay [2]; 0.355 µM in assay [3]; 0.0603 µM in assay [4]; 10.2 µM in assay [5]; 0.933 µM in assay [6].

In the case of `c1ccc(-c2cc3nc(N4CCNCC4)c4cccn4c3s2)cc1`, the IC50 in assay [2] was 35.5 µM; in assay [3] it was 10 µM; in assay [4] it was 2.45 µM; in assay [5] it was greater than 100 µM; in assay [6] it was 302 µM.

As to `CN1CCN(c2nc3cc(C(F)(F)F)ccc3n3cccc23)CC1`, the IC50 was 0.0468 µM in assay [1]; 0.123 µM in assay [2]; 1.32 µM in assay [4]; 0.339 µM in assay [5]; 18.6 µM in assay [6].

`C[N+]1(Cc2ccccc2)CCN(c2nc3ccsc3n3cccc23)CC1`: the IC50 in assay [1] is 7.76 µM; in assay [2] it was greater than 100 µM; in assay [3], 15.5 µM; in assay [4] it was 0.126 µM; in assay [5], 40.7 µM; in assay [6], 17.4 µM.

For `c1cc2c(N3CCCCC3)nc3ccsc3n2c1`, the IC50 in assay [1] was 64.6 µM; in assay [2] it was greater than 100 µM; in assay [3] it was 57.5 µM; in assay [4], 72.4 µM; in assay [5] it was greater than 100 µM; in assay [6], greater than 100 µM.

`CCOC(=O)N1CCN(c2nc3ccsc3n3cccc23)CC1`: the IC50 in assay [1] was 33.9 µM; in assay [2] it was 513 µM; in assay [3] it was greater than 100 µM; in assay [4], 204 µM; in assay [6], 123 µM.

Turning to `FC(F)(F)c1cccc(N2CCN(c3nc4ccsc4n4cccc34)CC2)c1`, the IC50 in assay [1] is 0.288 µM; in assay [2] it was 1.26 µM; in assay [3], 0.155 µM; in assay [4] it was 1.58 µM; in assay [6], 1.78 µM.

On to `c1cc2c(N3CCN(Cc4ccc5c(c4)OCO5)CC3)nc3sccc3n2c1`, for which the IC50 was 20 µM in assay [2]; 2.57 µM in assay [3]; 0.00102 µM in assay [4]; 7.08 µM in assay [5]; 24.5 µM in assay [6].

Turning to `Fc1ccc(CN2CCN(c3nc4ccsc4n4cccc34)CC2)cc1`, the IC50 in assay [1] was 0.347 µM; in assay [2], 138 µM; in assay [3] it was 7.41 µM; in assay [4], 0.0214 µM; in assay [5], 14.5 µM; in assay [6] it was 22.4 µM.

As for `Fc1ccc(CN2CCN(Cc3nc4ccsc4n4cccc34)CC2)cc1`, the IC50 was 7.76 µM in assay [1]; 38 µM in assay [2]; 14.1 µM in assay [3]; 18.2 µM in assay [4]; 19.5 µM in assay [5]; 13.8 µM in assay [6].

With `CN1CCN(c2nc3sc(-c4ccccc4)cc3n3cccc23)CC1`, the concentration for half-maximal inhibition (IC50) in assay [1] is 15.5 µM; in assay [2] it was 60.3 µM; in assay [3], 2.19 µM; in assay [4] it was 21.4 µM; in assay [5], greater than 100 µM; in assay [6], 13.8 µM.

Take `FC(F)(F)c1ccccc1CCN1CCN(c2nc3ccsc3n3cccc23)CC1`: the half-maximal inhibitory concentration (IC50) in assay [1] is 0.0724 µM; in assay [2], 200 µM; in assay [3], 1.07 µM; in assay [4] it was 269 µM; in assay [5] it was 18.6 µM; in assay [6], 5.13 µM.

For `Clc1ccc(CN2CCN(c3nc4sccc4n4cccc34)CC2)c(Cl)c1`, the IC50 in assay [1] is 31.6 µM; in assay [2] it was 25.1 µM; in assay [3], 19.1 µM; in assay [4], 4.17 µM; in assay [5], 63.1 µM; in assay [6], 479 µM.

Regarding `Clc1ccc(CN2CCN(c3nc4ccsc4n4cccc34)CC2)cc1Cl`, the concentration for half-maximal inhibition (IC50) in assay [1] is 1.35 µM; in assay [2], 44.7 µM; in assay [3] it was 3.89 µM; in assay [4], 2.29 µM; in assay [5], 4.27 µM; in assay [6], 17.4 µM.

For the compound `FC(F)(F)c1cccc(N2CCN(c3nc4sccc4n4cccc34)CC2)c1`, the IC50 in assay [1] is 12.6 µM; in assay [2] it was 57.5 µM; in assay [3] it was 5.89 µM; in assay [4] it was 74.1 µM; in assay [5] it was 7.41 µM; in assay [6], 832 µM.

As for `c1ccc(CN2CCN(c3nc4sc(-c5ccccc5)cc4n4cccc34)CC2)cc1`, the IC50 was 389 µM in assay [1]; 537 µM in assay [2]; 1000 µM in assay [3]; 39.8 µM in assay [4]; greater than 100 µM in assay [5]; greater than 100 µM in assay [6].

Consider `c1ccc(CN2CCN(c3nc4scc(-c5ccccc5)c4n4cccc34)CC2)cc1`, for which the IC50 is 25.7 µM in assay [1]; 30.9 µM in assay [2]; 2.63 µM in assay [3]; 6.76 µM in assay [4]; 24 µM in assay [5]; 63.1 µM in assay [6].

With `C1=CCN(c2nc3ccsc3n3cccc23)CC1`, the IC50 was 457 µM in assay [1]; greater than 100 µM in assay [2]; greater than 100 µM in assay [3]; greater than 100 µM in assay [4]; 112 µM in assay [6].

For `CN1CCN(c2nc3ccsc3n3cccc23)CC1`, the IC50 in assay [1] was 0.117 µM; in assay [2] it was 0.398 µM; in assay [3], 0.24 µM; in assay [4], 0.813 µM; in assay [5] it was 11.2 µM; in assay [6], 1.29 µM.

Take `c1ccc(C2CCN(c3nc4ccsc4n4cccc34)CC2)cc1`: the IC50 in assay [1], in assay [2], in assay [3], in assay [4], in assay [5] and in assay [6] was greater than 100 µM in each case.

With `O=C(c1ccc(F)cc1)N1CCN(c2nc3ccsc3n3cccc23)CC1`, the half-maximal inhibitory concentration (IC50) in assay [1] is 102 µM; in assay [2] it was 129 µM; in assay [3], greater than 100 µM; in assay [4] it was 1050 µM; in assay [5] it was 112 µM; in assay [6], 151 µM.

Turning to `c1ccc(N2CCN(c3nc4ccsc4n4cccc34)CC2)cc1`, the IC50 in assay [1], in assay [2], in assay [3], in assay [4] and in assay [6] was greater than 100 µM throughout.

`c1cc2c(N3CCN(Cc4ccc5c(c4)OCO5)CC3)nc3ccsc3n2c1`: the half-maximal inhibitory concentration (IC50) is 0.263 µM in assay [1]; 36.3 µM in assay [2]; 0.457 µM in assay [3]; 0.00257 µM in assay [4]; 3.09 µM in assay [5]; 11 µM in assay [6].

For `CN1CCN(c2nc3sccc3n3cccc23)CC1`, the half-maximal inhibitory concentration (IC50) in assay [1] was 0.0525 µM; in assay [2], 0.912 µM; in assay [4], 0.24 µM; in assay [6], 2.34 µM.

As for `c1ccc2nc(N3CCNCC3)ccc2c1` [QUIPAZINE], the IC50 in assay [2] was 3.72 µM; in assay [3] it was 0.0617 µM; in assay [5], 7.08 µM; in assay [6] it was 3.47 µM.

A word on the IC50: it is the point on the concentration scale where inhibition reaches its midpoint. Low readings indicate inhibition by little substance, high ones a need for much substance.
